Consider 6 compounds from the supplement of paper PMC12076712.

As a reminder, the pIC50 is −log10 of the IC50, conventionally taken in molar units.

What all share (assay): pIC50, kinobeads binding competition
One test concerns the target UniProt P50613. In outline: (§1)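 Nine compound concentrations were tested, starting at 30 μM in 1:4 steps on live Jurkat cells (60 min, 37 °C, then lysis) or in 1:5 steps on Jurkat lysate or a 1:1:1:1 HEK293/K-562/HepG2/placenta lysate mix (60 min, 4 °C). Kinobeads-bound proteins were digested and quantified with TMT10 LC-MS/MS. pIC50 values are from logistic dose-response fits in the R drc package of fold changes relative to vehicle, from biological duplicates.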

A further test concerns the target STK35 (UniProt Q8TDR2). In outline:
as §1

The next test deals with UniProt O75716. In outline:
as §1

Another test deals with UniProt Q9NYL2. In outline: as §1
In the next test the target is UniProt Q92918. In outline:
as §1

A further test deals with T1, MAP4K3 (UniProt Q8IVH8).
T1 sequence (whole entry): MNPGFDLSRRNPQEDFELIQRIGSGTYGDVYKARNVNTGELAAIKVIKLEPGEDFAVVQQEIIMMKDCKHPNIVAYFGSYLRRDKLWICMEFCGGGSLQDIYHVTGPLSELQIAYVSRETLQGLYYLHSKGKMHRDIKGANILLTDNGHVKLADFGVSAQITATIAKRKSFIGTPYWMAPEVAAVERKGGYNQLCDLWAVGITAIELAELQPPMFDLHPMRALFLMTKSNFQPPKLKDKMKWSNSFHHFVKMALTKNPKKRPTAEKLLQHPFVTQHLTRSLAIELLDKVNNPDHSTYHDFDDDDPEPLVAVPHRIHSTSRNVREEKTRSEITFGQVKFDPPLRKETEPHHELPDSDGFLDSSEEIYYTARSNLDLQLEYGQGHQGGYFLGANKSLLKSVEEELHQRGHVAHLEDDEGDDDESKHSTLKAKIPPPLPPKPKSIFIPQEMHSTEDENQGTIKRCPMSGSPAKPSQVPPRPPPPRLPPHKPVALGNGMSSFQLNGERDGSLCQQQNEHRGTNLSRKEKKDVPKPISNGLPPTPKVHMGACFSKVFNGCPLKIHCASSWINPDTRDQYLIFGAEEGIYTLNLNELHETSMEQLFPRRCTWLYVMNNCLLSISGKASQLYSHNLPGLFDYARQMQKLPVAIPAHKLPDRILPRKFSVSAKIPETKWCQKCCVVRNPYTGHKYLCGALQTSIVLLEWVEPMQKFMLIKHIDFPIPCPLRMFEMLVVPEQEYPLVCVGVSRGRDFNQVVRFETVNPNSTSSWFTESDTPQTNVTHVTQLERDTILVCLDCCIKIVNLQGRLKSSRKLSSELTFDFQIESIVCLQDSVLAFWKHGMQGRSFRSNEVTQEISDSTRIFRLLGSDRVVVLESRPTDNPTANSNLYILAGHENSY
In outline:
as §1

A further test concerns the target UniProt Q96GD4. In outline:
as §1

Another test addresses T2, UniProt Q13163.
T2 sequence (whole entry): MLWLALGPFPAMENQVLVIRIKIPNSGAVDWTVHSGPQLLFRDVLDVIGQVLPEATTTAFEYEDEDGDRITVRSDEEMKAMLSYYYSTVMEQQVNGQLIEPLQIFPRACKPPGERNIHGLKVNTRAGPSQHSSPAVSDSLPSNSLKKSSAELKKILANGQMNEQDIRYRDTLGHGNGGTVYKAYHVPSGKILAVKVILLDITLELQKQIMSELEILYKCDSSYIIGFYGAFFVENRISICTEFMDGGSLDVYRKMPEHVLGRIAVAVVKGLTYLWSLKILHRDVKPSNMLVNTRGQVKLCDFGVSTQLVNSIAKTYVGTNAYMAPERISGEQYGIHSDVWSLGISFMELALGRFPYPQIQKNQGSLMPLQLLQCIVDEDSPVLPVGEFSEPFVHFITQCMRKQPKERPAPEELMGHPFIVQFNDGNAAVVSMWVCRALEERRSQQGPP
In outline: as §1

A further test deals with PRKCB (UniProt P05771). In outline: as §1
A further test has as its target FER (UniProt P16591). In outline: as §1
Another test has as its target FGFR4 (UniProt P22455). Conditions: cell material: Lysate mix. In outline:
as §1

Sequence of UniProt Q9NYL2 (Q9NYL2 whole entry, looked up): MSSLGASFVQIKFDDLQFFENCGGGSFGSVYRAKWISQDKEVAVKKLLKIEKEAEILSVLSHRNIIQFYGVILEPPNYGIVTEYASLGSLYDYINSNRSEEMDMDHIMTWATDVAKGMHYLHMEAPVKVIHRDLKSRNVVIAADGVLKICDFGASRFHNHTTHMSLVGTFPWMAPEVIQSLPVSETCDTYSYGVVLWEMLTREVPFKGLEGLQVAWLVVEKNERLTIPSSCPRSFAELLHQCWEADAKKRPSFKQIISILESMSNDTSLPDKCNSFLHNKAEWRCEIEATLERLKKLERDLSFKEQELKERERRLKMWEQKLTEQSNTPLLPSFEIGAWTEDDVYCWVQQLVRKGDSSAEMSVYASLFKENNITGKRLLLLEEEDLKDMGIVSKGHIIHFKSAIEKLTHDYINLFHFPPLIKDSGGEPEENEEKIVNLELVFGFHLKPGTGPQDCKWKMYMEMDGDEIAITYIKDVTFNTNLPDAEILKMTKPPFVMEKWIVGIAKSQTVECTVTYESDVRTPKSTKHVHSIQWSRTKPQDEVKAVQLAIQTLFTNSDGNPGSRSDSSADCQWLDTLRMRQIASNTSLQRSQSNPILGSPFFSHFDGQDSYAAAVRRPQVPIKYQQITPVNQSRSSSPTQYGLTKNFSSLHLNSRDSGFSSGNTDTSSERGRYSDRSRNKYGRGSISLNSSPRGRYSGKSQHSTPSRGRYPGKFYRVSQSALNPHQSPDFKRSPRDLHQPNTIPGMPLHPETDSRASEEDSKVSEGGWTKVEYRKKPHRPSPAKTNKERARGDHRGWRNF
Sequence of UniProt P50613 (P50613 whole entry): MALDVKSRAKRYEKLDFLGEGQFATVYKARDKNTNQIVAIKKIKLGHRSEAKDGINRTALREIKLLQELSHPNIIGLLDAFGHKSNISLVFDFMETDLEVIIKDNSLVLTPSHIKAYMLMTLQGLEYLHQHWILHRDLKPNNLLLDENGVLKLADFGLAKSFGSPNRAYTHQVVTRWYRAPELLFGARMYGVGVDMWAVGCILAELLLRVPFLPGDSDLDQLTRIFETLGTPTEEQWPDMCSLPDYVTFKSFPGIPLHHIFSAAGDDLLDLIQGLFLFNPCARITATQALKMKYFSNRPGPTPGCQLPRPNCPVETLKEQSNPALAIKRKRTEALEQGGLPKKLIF
Sequence of UniProt O75716 (O75716 whole entry): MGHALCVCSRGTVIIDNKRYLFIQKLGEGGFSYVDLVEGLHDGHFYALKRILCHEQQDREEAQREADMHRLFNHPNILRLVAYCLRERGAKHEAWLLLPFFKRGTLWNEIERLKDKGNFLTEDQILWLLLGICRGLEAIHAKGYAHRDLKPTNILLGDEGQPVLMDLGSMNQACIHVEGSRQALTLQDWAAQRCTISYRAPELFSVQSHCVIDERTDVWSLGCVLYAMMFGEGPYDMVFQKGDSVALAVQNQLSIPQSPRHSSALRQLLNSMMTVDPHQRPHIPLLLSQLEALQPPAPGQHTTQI
Sequence of FER (P16591 whole entry, looked up): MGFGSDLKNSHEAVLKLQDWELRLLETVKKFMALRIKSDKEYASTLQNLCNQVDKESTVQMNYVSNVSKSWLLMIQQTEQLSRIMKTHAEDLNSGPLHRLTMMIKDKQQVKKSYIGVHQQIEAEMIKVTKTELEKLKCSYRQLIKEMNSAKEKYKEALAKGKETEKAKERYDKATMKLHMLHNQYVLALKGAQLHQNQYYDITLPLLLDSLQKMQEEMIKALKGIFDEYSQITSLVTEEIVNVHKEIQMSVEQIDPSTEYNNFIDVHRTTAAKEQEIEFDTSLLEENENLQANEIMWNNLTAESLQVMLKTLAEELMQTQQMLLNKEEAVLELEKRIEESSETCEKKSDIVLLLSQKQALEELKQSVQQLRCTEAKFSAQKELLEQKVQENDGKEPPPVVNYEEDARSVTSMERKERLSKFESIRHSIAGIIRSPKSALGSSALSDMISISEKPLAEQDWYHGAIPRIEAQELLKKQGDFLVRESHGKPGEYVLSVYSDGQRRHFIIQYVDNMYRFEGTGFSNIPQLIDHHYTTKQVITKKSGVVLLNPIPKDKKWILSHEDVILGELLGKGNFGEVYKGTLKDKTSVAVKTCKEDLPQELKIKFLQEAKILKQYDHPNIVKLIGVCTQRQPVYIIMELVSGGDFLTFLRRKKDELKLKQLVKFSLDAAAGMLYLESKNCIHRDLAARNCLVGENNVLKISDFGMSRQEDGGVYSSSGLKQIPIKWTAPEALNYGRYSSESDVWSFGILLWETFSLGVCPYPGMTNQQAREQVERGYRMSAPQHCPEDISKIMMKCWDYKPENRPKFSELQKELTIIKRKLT
Sequence of FGFR4 (P22455 whole entry, looked up): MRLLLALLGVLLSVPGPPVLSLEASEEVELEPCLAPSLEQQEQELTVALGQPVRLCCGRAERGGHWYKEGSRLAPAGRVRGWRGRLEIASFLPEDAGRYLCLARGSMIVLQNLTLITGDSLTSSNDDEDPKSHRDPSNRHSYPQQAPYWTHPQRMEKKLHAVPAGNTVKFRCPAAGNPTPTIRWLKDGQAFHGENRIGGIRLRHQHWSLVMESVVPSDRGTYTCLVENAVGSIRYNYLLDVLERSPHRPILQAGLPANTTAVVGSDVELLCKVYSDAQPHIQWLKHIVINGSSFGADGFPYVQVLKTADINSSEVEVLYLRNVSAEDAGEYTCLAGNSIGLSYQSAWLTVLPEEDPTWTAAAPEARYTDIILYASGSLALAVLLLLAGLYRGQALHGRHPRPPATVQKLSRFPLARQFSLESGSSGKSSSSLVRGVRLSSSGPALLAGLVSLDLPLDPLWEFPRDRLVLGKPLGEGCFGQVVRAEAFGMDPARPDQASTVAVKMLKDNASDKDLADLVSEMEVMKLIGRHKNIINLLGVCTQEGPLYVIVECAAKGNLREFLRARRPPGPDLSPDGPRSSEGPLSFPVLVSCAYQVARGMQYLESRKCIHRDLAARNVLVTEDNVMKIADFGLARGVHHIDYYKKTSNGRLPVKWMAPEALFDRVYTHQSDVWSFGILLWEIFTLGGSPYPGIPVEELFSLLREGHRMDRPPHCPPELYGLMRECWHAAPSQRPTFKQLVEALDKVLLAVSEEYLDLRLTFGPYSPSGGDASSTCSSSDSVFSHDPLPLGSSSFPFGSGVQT
Sequence of STK35 (Q8TDR2 whole entry): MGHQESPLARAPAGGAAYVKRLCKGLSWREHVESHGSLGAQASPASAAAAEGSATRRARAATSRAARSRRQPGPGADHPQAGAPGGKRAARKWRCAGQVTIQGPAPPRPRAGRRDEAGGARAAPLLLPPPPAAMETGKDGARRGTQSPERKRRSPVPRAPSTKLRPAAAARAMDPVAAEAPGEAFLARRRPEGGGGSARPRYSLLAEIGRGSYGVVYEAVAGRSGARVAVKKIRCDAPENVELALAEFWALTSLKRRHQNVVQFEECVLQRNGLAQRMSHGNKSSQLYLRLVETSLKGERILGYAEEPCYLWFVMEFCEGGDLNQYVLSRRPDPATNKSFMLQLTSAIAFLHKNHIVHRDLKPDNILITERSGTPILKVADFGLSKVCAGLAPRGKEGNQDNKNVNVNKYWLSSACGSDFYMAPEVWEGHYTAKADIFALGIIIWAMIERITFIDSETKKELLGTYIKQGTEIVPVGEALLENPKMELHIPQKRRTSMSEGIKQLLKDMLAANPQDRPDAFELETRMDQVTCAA
Sequence of PRKCB (P05771 whole entry, looked up): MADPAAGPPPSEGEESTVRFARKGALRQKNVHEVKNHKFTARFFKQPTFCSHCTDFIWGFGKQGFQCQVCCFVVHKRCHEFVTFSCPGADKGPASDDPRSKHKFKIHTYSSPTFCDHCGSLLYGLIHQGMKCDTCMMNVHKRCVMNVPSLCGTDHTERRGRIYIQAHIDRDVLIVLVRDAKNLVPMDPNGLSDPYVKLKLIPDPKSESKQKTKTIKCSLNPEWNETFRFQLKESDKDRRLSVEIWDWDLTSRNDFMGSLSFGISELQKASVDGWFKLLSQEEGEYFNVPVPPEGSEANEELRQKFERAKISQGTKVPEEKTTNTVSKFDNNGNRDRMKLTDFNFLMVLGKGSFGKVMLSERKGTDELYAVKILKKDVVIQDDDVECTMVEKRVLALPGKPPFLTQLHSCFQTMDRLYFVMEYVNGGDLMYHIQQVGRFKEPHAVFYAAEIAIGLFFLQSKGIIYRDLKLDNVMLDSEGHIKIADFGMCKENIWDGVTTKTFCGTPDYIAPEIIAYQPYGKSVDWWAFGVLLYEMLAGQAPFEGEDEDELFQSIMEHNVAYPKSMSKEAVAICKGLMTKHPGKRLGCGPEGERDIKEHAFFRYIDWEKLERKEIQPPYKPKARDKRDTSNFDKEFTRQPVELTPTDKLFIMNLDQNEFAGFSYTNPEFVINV
Sequence of UniProt Q96GD4 (Q96GD4 whole entry): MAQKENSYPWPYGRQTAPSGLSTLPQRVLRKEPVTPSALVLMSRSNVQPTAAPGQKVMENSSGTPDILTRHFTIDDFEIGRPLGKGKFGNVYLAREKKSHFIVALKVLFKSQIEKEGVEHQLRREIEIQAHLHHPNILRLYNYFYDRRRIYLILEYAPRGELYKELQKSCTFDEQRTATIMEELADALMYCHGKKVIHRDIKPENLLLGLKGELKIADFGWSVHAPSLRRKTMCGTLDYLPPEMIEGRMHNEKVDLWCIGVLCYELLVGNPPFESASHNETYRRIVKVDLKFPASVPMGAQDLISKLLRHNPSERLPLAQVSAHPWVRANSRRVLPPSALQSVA

For the compound `O=C(NCCNC(=O)c1cc(Nc2cc(C3CC3)[nH]n2)nc(N2CCN(Cc3ccc(S(=O)(=O)F)cc3)CC2)n1)OC1CC/C=C/CCC1` (stereo not drawn), the pIC50 at UniProt P50613 (cell material: Jurkat cells) stood at 6.12; on UniProt P50613 (cell material: Jurkat lysate) it was 4.7; at STK35 (cell material: Jurkat cells) it was 6.88; on STK35 (cell material: Jurkat lysate), 5.19; on STK35 (cell material: Lysate mix), 5.2; on UniProt O75716 (cell material: Jurkat cells), 4.81. Besides, the negative logarithm of the IC50 (pIC50) at UniProt O75716 (cell material: Jurkat lysate) was less than 4.52; on UniProt O75716 (cell material: Lysate mix), less than 4.52; on UniProt Q9NYL2 (cell material: Jurkat cells) it was less than 4.52; at UniProt Q9NYL2 (cell material: Jurkat lysate) it was less than 4.52; at UniProt Q9NYL2 (cell material: Lysate mix), less than 4.52; at UniProt Q92918 (cell material: Jurkat cells), 5.32. Also, the pIC50 at UniProt Q92918 (cell material: Jurkat lysate) was less than 4.52; at UniProt Q92918 (cell material: Lysate mix) it was less than 4.52; on MAP4K3 (cell material: Jurkat cells) it was 5.15; at MAP4K3 (cell material: Jurkat lysate), less than 4.52; at MAP4K3 (cell material: Lysate mix), less than 4.52; on UniProt Q96GD4 (cell material: Jurkat cells), 6.39. Further, the negative-log IC50 (pIC50) at UniProt Q96GD4 (cell material: Lysate mix) is 4.98; at UniProt Q13163 (cell material: Jurkat cells) it was 4.99; on UniProt Q13163 (cell material: Jurkat lysate) it was less than 4.52; at UniProt Q13163 (cell material: Lysate mix), less than 4.52; at PRKCB (cell material: Jurkat lysate) it was less than 4.52; at PRKCB (cell material: Lysate mix) it was less than 4.52. Further, the negative-log IC50 (pIC50) on FER (cell material: Jurkat cells) was 5.6; on FER (cell material: Jurkat lysate), less than 4.52; at FER (cell material: Lysate mix) it was less than 4.52; at FGFR4 it was less than 4.52.
Regarding `Cc1cc(Nc2cc(C(=O)NCCNC(=O)OC3CC/C=C/CCC3)nc(N3CCN(Cc4ccc(S(=O)(=O)F)cc4)CC3)n2)n[nH]1` (stereo not drawn), the pIC50 on UniProt P50613 (cell material: Lysate mix) is less than 4.52; at STK35 (cell material: Lysate mix), 4.91; on UniProt O75716 (cell material: Lysate mix), less than 4.52; on UniProt Q9NYL2 (cell material: Lysate mix), less than 4.52; on UniProt Q92918 (cell material: Lysate mix), less than 4.52; at MAP4K3 (cell material: Lysate mix), less than 4.52. The negative-log IC50 (pIC50) at UniProt Q96GD4 (cell material: Lysate mix) is 4.92; on UniProt Q13163 (cell material: Lysate mix), less than 4.52; on PRKCB (cell material: Lysate mix), less than 4.52; on FER (cell material: Lysate mix), less than 4.52; at FGFR4, less than 4.52.
As to `CCNC(=O)c1cc(Nc2cc(C)[nH]n2)nc(N2CCN(Cc3ccc(S(=O)(=O)F)cc3)CC2)n1`, the negative-log IC50 (pIC50) on UniProt P50613 (cell material: Lysate mix) is 5; on STK35 (cell material: Lysate mix) it was 6.51; on UniProt O75716 (cell material: Lysate mix) it was 4.87; on UniProt Q9NYL2 (cell material: Lysate mix), less than 4.52; on UniProt Q92918 (cell material: Lysate mix), 4.78; on MAP4K3 (cell material: Lysate mix) it was less than 4.52. In addition, the negative-log IC50 (pIC50) is 6.13 on UniProt Q96GD4 (cell material: Lysate mix); 4.73 at UniProt Q13163 (cell material: Lysate mix); less than 4.52 at PRKCB (cell material: Lysate mix); 4.72 on FER (cell material: Lysate mix); less than 4.52 at FGFR4.
In the case of `C#CCNC(=O)c1cc(Nc2cc(C3CC3)[nH]n2)nc(N2CCN(Cc3ccc(S(=O)(=O)F)cc3)CC2)n1`, the negative-log IC50 (pIC50) was 6.47 on UniProt P50613 (cell material: Jurkat cells); 5.78 on UniProt P50613 (cell material: Jurkat lysate); 6.35 at UniProt P50613 (cell material: Lysate mix); 6.96 at STK35 (cell material: Jurkat cells); 6.1 on STK35 (cell material: Jurkat lysate); 6.96 on STK35 (cell material: Lysate mix). Besides, the pIC50 was 5.82 at UniProt O75716 (cell material: Jurkat cells); 4.92 on UniProt O75716 (cell material: Jurkat lysate); 5.32 on UniProt O75716 (cell material: Lysate mix); 5.56 on UniProt Q9NYL2 (cell material: Jurkat cells); less than 4.52 on UniProt Q9NYL2 (cell material: Jurkat lysate); less than 4.52 on UniProt Q9NYL2 (cell material: Lysate mix). For the same compound, the negative-log IC50 (pIC50) at UniProt Q92918 (cell material: Jurkat cells) stood at 5.88; at UniProt Q92918 (cell material: Jurkat lysate), 5.35; on UniProt Q92918 (cell material: Lysate mix), 5.9; at MAP4K3 (cell material: Jurkat cells), 6.02; at MAP4K3 (cell material: Jurkat lysate), 4.77; on MAP4K3 (cell material: Lysate mix), 5.43. Also, the negative logarithm of the IC50 (pIC50) on UniProt Q96GD4 (cell material: Jurkat cells) stood at 6.67; at UniProt Q96GD4 (cell material: Jurkat lysate) it was 5.72; at UniProt Q96GD4 (cell material: Lysate mix), 6.22; on UniProt Q13163 (cell material: Jurkat cells), 5.71; at UniProt Q13163 (cell material: Jurkat lysate), 4.88; on UniProt Q13163 (cell material: Lysate mix), 5.42. Also, the pIC50 is 5.46 on PRKCB (cell material: Jurkat cells); less than 4.52 at PRKCB (cell material: Jurkat lysate); less than 4.52 at PRKCB (cell material: Lysate mix); 6.2 at FER (cell material: Jurkat cells); 5.44 on FER (cell material: Jurkat lysate); 5.92 on FER (cell material: Lysate mix). The pIC50 on FGFR4 is less than 4.52.
On to `C#CCNC(=O)c1cc(Nc2cc(C)[nH]n2)nc(N2CCN(Cc3ccc(S(=O)(=O)F)cc3)CC2)n1`, for which the pIC50 at UniProt P50613 (cell material: Lysate mix) is 5.14; on STK35 (cell material: Lysate mix) it was 6.01; on UniProt O75716 (cell material: Lysate mix), 4.89; at UniProt Q9NYL2 (cell material: Lysate mix), less than 4.52; at UniProt Q92918 (cell material: Lysate mix) it was 4.77; at MAP4K3 (cell material: Lysate mix) it was 4.65. The pIC50 at UniProt Q96GD4 (cell material: Lysate mix) was 5.94; on UniProt Q13163 (cell material: Lysate mix) it was 4.64; on PRKCB (cell material: Lysate mix), less than 4.52; at FER (cell material: Lysate mix), 4.78; at FGFR4, less than 4.52.
In the case of `CCNC(=O)c1cc(Nc2cc(C3CC3)[nH]n2)nc(N2CCN(Cc3ccc(S(=O)(=O)F)cc3)CC2)n1`, the pIC50 on UniProt P50613 (cell material: Lysate mix) is 6.33; on STK35 (cell material: Lysate mix) it was 6.58; at UniProt O75716 (cell material: Lysate mix), 5.46; on UniProt Q9NYL2 (cell material: Lysate mix) it was less than 4.52; at UniProt Q92918 (cell material: Lysate mix), 5.8; on MAP4K3 (cell material: Lysate mix), 5.11. Further, the pIC50 at UniProt Q96GD4 (cell material: Lysate mix) was 5.94; at UniProt Q13163 (cell material: Lysate mix), 5.28; on PRKCB (cell material: Lysate mix), less than 4.52; at FER (cell material: Lysate mix) it was 5.62; at FGFR4, less than 4.52.
